Reference: patent publication US7157083B2, “Compositions and methods for treating retroviral infections” (priority 1998, dated 2007)
Where two headings read alike, the source gives them in different places.

Tested on: HIV-1
Conditions: for % Control, Sum / Mean RT, Sum: Sum over 20, 10, 5 mg/mL
Procedure: Reverse transcriptase (RT) activity was measured in cell-free supernatants. Tritiated thymidine triphosphate (NEN) (TTP) was resuspended in distilled H2O at […]. Poly rA and oligo dT were prepared as a stock solution which was kept at −20° C. The RT reaction buffer was prepared fresh on a daily basis and consists of 125 μL 1.0 M EGTA, 125 μL d H2O, 110 μL 10% SDS, 50 μL 1.0 M Tris (pH 7.4), 50 μL 1.0 M DTT, and 40μ1.0 M MgCl2. These three solutions were mixed together in a ratio of 2 parts TTP, 1 part poly rA:oligo dT, and 1 part reaction buffer. Ten microliters of this reaction mixture was placed in a round bottom microtiter plate and 15 μL of virus containing supernatant was added and mixed. The plate was incubated at 37° C. in a water bath with a solid support to prevent submersion of the plate and incubated for 60 minutes. Following reaction, the reaction volume was spotted onto pieces of DE81 paper, washed 5 times for 5 minutes each in a 5% sodium phosphate buffer, 2 times for 1 minute each in distilled water, 2 times for 1 minute each in 70% ethanol, and then dried. Opti-Fluor O was added to each sample and incorporated radioactivity was quantitated utilizing a Wallace 1450 Microbetaplus liquid scintillation counter.
Control groups were not treated with the enzyme. The virus was then titrated on macrophage/monocyte cultures and incubated at 37° C. for 48 hours at which time the macrophages and monocytes were washed 3×, resuspended and placed in fresh wells. Naïve PBMC's were overlayed on the macrophage/monocyte cultures and incubated at 37° C. for 72 hours. The PBMC's were then separated, washed and placed in fresh wells with fresh medium and rested for 48 hours. After a 48 hour rest period, the PBMC's were challenged with HIV-1 with and without PHA, I1-2, or both. […] These various assays are presented below in Table 10 .

Hyaluronidase was tested, and the “Mean RT” value (Assay #2, 5 mg/mL) was 6548.3 cpm, the “% Control” value (Assay #2, 10 mg/mL) was 26.4% and the “Mean RT” value (Assay #2, 10 mg/mL) was 8391.3 cpm. For the same substance, the “% Control” value (Assay #2, 20 mg/mL) was 10.4%, the “Mean RT” value (Assay #2, 20 mg/mL) was 3298.3 cpm and the “% Control, Sum” value (Assay #2) was 57.4%. The “Mean RT, Sum” value (Assay #2) was 18237.9 cpm, the “% Control” value (Assay #3, 5 mg/mL) was 42.7% and the “Mean RT” value (Assay #3, 5 mg/mL) was 5641.7 cpm. For the same substance, the “% Control” value (Assay #3, 10 mg/mL) was 91.2%, the “Mean RT” value (Assay #3, 10 mg/mL) was 12058 cpm and the “% Control” value (Assay #3, 20 mg/mL) was 90.3%. For the same substance, the “Mean RT” value (Assay #3, 20 mg/mL) was 11940.7 cpm, the “% Control, Sum” value (Assay #3) was 224.2% and the “Mean RT, Sum” value (Assay #3) was 29640.4 cpm. The “% Control” value (Assay #4, 5 mg/mL) was 1.9%, the “Mean RT” value (Assay #4, 5 mg/mL) was 247.3 cpm and the “% Control” value (Assay #4, 10 mg/mL) was 22.4%. The “Mean RT” value (Assay #4, 10 mg/mL) was 2973.7 cpm, the “% Control” value (Assay #4, 20 mg/mL) was 29.9% and the “Mean RT” value (Assay #4, 20 mg/mL) was 3961.7 cpm. For the same substance, the “% Control, Sum” value (Assay #4) was 54.2%, the “Mean RT, Sum” value (Assay #4) was 7182.7 cpm and the “% Control” value (Assay #9, 5 mg/mL) was 137.4%. For the same substance, the “Mean RT” value (Assay #9, 5 mg/mL) was 11038 cpm, the “% Control” value (Assay #9, 10 mg/mL) was 128.8% and the “Mean RT” value (Assay #9, 10 mg/mL) was 10344 cpm. The “% Control” value (Assay #9, 20 mg/mL) was 96.2%, the “Mean RT” value (Assay #9, 20 mg/mL) was 7725.7 cpm and the “% Control, Sum” value (Assay #9) was 362.4%. The “Mean RT, Sum” value (Assay #9) was 29107.7 cpm, the “% Control” value (Assay #10, 5 mg/mL) was 230.8% and the “Mean RT” value (Assay #10, 5 mg/mL) was 13715.3 cpm. For the same substance, the “% Control” value (Assay #10, 10 mg/mL) was 122.2%, the “Mean RT” value (Assay #10, 10 mg/mL) was 7258.7 cpm and the “% Control” value (Assay #10, 20 mg/mL) was 61.1%. For the same substance, the “Mean RT” value (Assay #10, 20 mg/mL) was 3633.7 cpm, the “% Control, Sum” value (Assay #10) was 414.1% and the “Mean RT, Sum” value (Assay #10) was 24607.7 cpm. The “% Control” value (Assay #11, 5 mg/mL) was 63.2%, the “Mean RT” value (Assay #11, 5 mg/mL) was 17826.3 cpm and the “% Control” value (Assay #11, 10 mg/mL) was 75.3%. The “Mean RT” value (Assay #11, 10 mg/mL) was 21230 cpm, the “% Control” value (Assay #11, 20 mg/mL) was 30.1% and the “Mean RT” value (Assay #11, 20 mg/mL) was 8496.3 cpm. For the same substance, the “% Control, Sum” value (Assay #11) was 168.6%, the “Mean RT, Sum” value (Assay #11) was 47552.6 cpm and the “% Control” value (Assay #12, 5 mg/mL) was 118.3%. For the same substance, the “Mean RT” value (Assay #12, 5 mg/mL) was 17657 cpm, the “% Control” value (Assay #12, 10 mg/mL) was 39.8% and the “Mean RT” value (Assay #12, 10 mg/mL) was 5946.7 cpm. For the same substance, the “% Control” value (Assay #12, 20 mg/mL) was 56.1%, the “Mean RT” value (Assay #12, 20 mg/mL) was 8382 cpm and the “% Control, Sum” value (Assay #12) was 214.2%. The “Mean RT, Sum” value (Assay #12) was 31985.7 cpm.
